Data reported in patent US20230158033A1, “Method of Treating Pemphigus by Administering (R)-2-[3-[4-Amino-3-(2-Fluoro-4-Phenoxy-Phenyl)Pyrazolo[3,4-D]Pyrimidin-1-YL]Piperidine-1-Carbonyl]-4-Methyl-4-[4-(Oxetan-3-YL)Piperazin-1-YL]Pent-2-Enenitrile” (Principia Biopharma Inc., priority 2019, published 2023).
“And” between values parts separate entries of the source, which are not always exact repeats. Identical values can stand only once.

Legend:
[1] = healthy volunteer population (Evans 2013); cited from earlier work
[2] = tested on: rats with collagen-induced arthritis; conditions: rats with collagen-induced arthritis (Hill R et al., 2015); cited from earlier work
healthy volunteers = conditions: Phase 1, healthy volunteers (Smith PF 2017); cited from earlier work
[3] = tested on: patients with pemphigus (Safety Population); assay: Safety (treatment-emergent adverse events), Part A
Protocol: (§1) Specific assessments to evaluate treatment safety included the following: (1) the frequency and type of AEs; (2) clinical laboratory testing; (3) SNAQ appetite questionnaire; and (4) vital signs. Typically, patients remained under observation in the clinic for 2 hours after administration of the first PRN1008 dose and until the PK sample was drawn.
(§2) The primary safety outcome measures were incidence of treatment-emergent AEs (TEAEs), including clinically significant changes in physical examination, laboratory tests, and vital signs.
(§3) Investigators were instructed to report in detail all AEs encountered during the clinical study in the source documents, from the date of participant consent throughout the follow-up visit. Investigators were also instructed to report pre-existing conditions that worsen during a study were instructed as AEs, with the exception of the disease under study as it was expected that there may be variation in pemphigus disease activity intended to be captured in other measurements.
(§4) Investigators were instructed to grade AEs based on the NCI CTCAE, Version 4.0 or higher.
(§5) Investigators were instructed to use their knowledge of the study participant, the circumstances surrounding the event, and an evaluation of any potential alternative causes to determine whether or not an AE is considered to be related to the study drug, indicating “yes” or “no” accordingly.

[4] = tested on: patients with newly diagnosed or relapsing pemphigus; assay: Phase 2 study Part A (400 mg BID up to 600 mg BID, 12-week treatment): clinical activity; assay type: in vivo, human; conditions: for patients who achieved complete remission (CR): n = 24
[5] = Plasma concentration of PRN1008, Part A; assay type: in vivo; conditions: human, oral, read-out: plasma levels at 12 hours post-dose (trough point)
[6] = Relative bioavailability study, tablet vs liquid formulation
[7] = tested on: canines with naturally occurring PF; conditions: canines with naturally occurring PF (Murrell DF, 2019); cited from earlier work
patients with pemphigus = assay: Safety (adverse events), Part B
Protocol: as §1, §2, §3, §4, §5

[8] = tested on: patients with pemphigus (PV and PF); assay: Interim data as of Jan. 18, 2018 in patients with pemphigus (PV and PF); assay type: in vivo, human
Protocol: As of Jan. 18, 2018, PRN1008 had been administered to 21 patients with pemphigus (pemphigus vulgaris (PV) and pemphigus foliaceus (PF)), 18 of whom had 4 or more weeks of treatment with […]1008 was well-tolerated in this study. […] Three patients achieved CDA on no CS. Two patients required high-dose CS temporarily during PRN1008 treatment due to worsening of disease activity. Four patients achieved complete remission (CR) on 1 to 20 mg/day of CS, three achieved CR at Week 13 (25%), and one achieved CR at Week 21.

[9] = tested on: anti-dsg 1 and anti-dsg 3 autoantibody levels; assay: Anti-dsg autoantibody levels by ELISA, Part A; conditions: including patients with high autoantibody levels at baseline
Text: PK outcome measures investigated included plasma concentrations of PRN1008 at approximately the time of maximum concentration on Day 1 and at various subsequent times during outpatient dosing.

[10] = tested on: fetal development, male fertility; assay: Preclinical reproductive toxicity studies; assay type: in vivo
[11] = tested on: patients with newly diagnosed or relapsing pemphigus; assay: Phase 2 study Part B (400 mg QD up to 600 mg BID, 24-week treatment): clinical activity; conditions: for Median PDAI: 12 at day 1
Protocol: Generally, clinical response is shown by some improvement seen in first 2 weeks with CDA achieved by the Week 5 visit. […] Typically, clinical response and tolerability were assessed at each visit.
PDAI and ABSIS assessments were employed to monitor pemphigus disease activity. […] Photography was used to document skin disease changes where appropriate.
Part B was a multicenter, open-label, single-arm Phase 2 study (NCT02704429) designed to further evaluate the efficacy and safety of PRN1008 in pemphigus patients. Patients received an initial dose of 400 mg PRN1008 once a day (QD) with possible dose adjustment up to 600 mg BID at investigator discretion. Treatment duration was 24 weeks with an additional 4 weeks of follow-up off treatment.

## C=CC(=O)Nc1cccc(Nc2nc(Nc3ccc(OCCOC)cc3)ncc2F)c1 [CC-292]
[1]
  tolerability: well tolerated

## CC(C)(C=C(C#N)C(=O)N1CCC[C@@H](n2nc(-c3ccc(Oc4ccccc4)cc3F)c3c(N)ncnc32)C1)N1CCN(C2COC2)CC1 [PRN1008, (R)-2-[3-[4-amino-3-(2-fluoro-4-phenoxy-phenyl)pyrazolo[3,4-d]pyrimidin-1-yl]piperidine-1-carbonyl]-4-methyl-4-[4-(oxetan-3-yl)piperazin-1-yl]pent-2-enenitrile]
[2]
  disease symptoms and outcomes: improved disease symptoms and outcomes
Healthy volunteers
  discontinuation due to an adverse event: no participants discontinued treatment due to an adverse event
  most commonly reported adverse events: gastrointestinal adverse events, including nausea/vomiting and diarrhea
  serious adverse events or deaths: No serious adverse events or deaths were reported
[3]; Part A
  AEs commonly associated with marketed BTKi (major hemorrhage, atrial fibrillation, thrombocytopenia/neutropenia): no cases
  AEs related to the study drug: headache: 11%
  AEs related to the study drug: nausea: 15%
  AEs related to the study drug: upper abdominal pain: 11%
  patients who experienced Serious AEs (SAE): Three
[3]; Part A Safety Population, 20 of 27
  patients who experienced a TEAE: 74%
[3]; Part A, Day 26, patient with type II diabetes
  only treatment related SAE: cellulitis (Grade 3)
[3]; Part A, number of AEs out of all AEs
  AEs that were Grade 1 or 2: 94/97
[4]
  Efficacy across subgroups: 43-64%
  additional patients who achieved CR at Week 13 without CS use: four
  patients who achieved CDA at or prior to the Week 5 visit without the use of CS: Three
  patients who did not require dose escalation to achieve response: 90%
  patients who needed dose escalation beyond the standard 400 mg bid: three
[4]; 400 mg BID (up to 600 mg BID), 2 weeks / study day 15, n = 26
  patients who achieved control of disease activity (CDA): 27%
[4]; 400 mg BID subgroup, 12 of 23
  CDA with low dose CS by Day 29, dosing subgroup: 52%
[4]; 500 mg BID subgroup, 1 of 1
  CDA with low dose CS by Day 29, dosing subgroup: 100%
[4]; 600 mg BID subgroup, 1 of 2
  CDA with low dose CS by Day 29, dosing subgroup: 50%
[4]; 4 weeks / Day 29, CS <= 0.5 mg/kg/day, n = 26 (primary endpoint), 0.5 mg/kg/day
  patients who achieved control of disease activity (CDA) with low dose CS: 54% and > 50%
[4]; 6 of 8
  CDA rate in newly diagnosed patients: 75%
[4]; 6 of 26
  patients who achieved CR during the study period: 23%
[4]; 12 weeks (treatment period), patients that completed the study
  patients who achieved complete remission (CR): 16.7% and 17%
[4]; 12 weeks / Day 85
  patients who achieved control of disease activity (CDA) with low dose CS: 73%
[4]; 13 of 18
  CDA rate in relapsing patients: 72%
[4]; 24 weeks (12 weeks on, 12 weeks off treatment; follow-up by Day 141)
  patients who achieved complete remission (CR): 25%
[4]; all of 11 patients with milder disease
  PDAI scores on the Day 85 visit: ≤ 5
[4]; all patients, SD = 10, baseline 14 mg/day (SD = 11)
  Mean CS dose after 12 weeks of treatment: 12 mg/day
[4]; dropped from 14 mg/day at baseline
  mean CS dose at CR: 8 mg/day
[4]; follow-up period
  additional patients who achieved CR on CS <= 0.5 mg/kg/day by Day 141: two
[4]; four patients of 26
  patients who achieved CR on CS doses <= 0.5 mg/kg/day by Day 85: 15%
[4]; in the 12 weeks off PRN1008
  patients who needed CS rescue > 0.5 mg/kg: 4 patients
[4]; over 12 weeks of treatment
  median reduction in PDAI scores: 70%
[4]; patients who achieved CR, range 1-20 mg
  mean CS dose at the time CR was achieved: 8 mg
[4]; post-treatment
  median CR duration: 96 days
[4]; post-treatment, range 0.7-20 mg/day
  mean CS dose during CR duration: 8 mg/day
[4]; slightly higher than overall mITT population
  CDA rate in patients with a positive anti-dsg 3 antibody: 64%
[5]
  concentration at 12 h: 9.5 ng/mL
[6]
  exposure of the tablet relative to the equal dose of the liquid formulation: ~ 70%
[7]
  disease symptoms and outcomes: improved disease symptoms and outcomes
Patients with pemphigus
  tolerability: well tolerated
Patients with pemphigus; all treatment-related AEs
  severity of treatment-related AEs: mild-moderate and transient
Patients with pemphigus; mild to moderate (grade 1 and 2)
  Treatment-related AEs with an incidence greater than 10%: nausea, abdominal distension, infection, and oropharyngeal pain
Patients with pemphigus; of 15, grade 1 nasopharyngitis, grade 1 tracheitis
  patients who reported a mild related infection: 2 patients
[8]
  patients who achieved CDA on no CS: Three
  patients who achieved CR at Week 21: one
  patients who achieved complete remission (CR) on 1 to 20 mg/day of CS: Four
[8]; 11 of 18 patients with efficacy data
  patients who met the primary endpoint CDA on CS <= 0.5 mg/kg/day by the Week 5 visit: 61%
[8]; 21 patients with pemphigus
  tolerability: well-tolerated
[8]; during PRN1008 treatment
  patients who required high-dose CS temporarily due to worsening of disease activity: Two
[8]; three patients
  patients who achieved CR at Week 13: 25%
[9]
  median reduction of autoantibody levels: up to 65%
[10]
  reproductive toxicity: not expected to harm fetal development or male fertility
[11]; 400 mg QD only, 2 weeks, n = 14 (FIG. 6)
  patients who achieved CDA: 29%
[11]; 400 mg QD only, 4 weeks, n = 14 (FIG. 6)
  patients who achieved CDA: 43%
[11]; 400 mg QD only, 4 weeks, n = 14 (FIG. 8B, 80% CI)
  patients who achieved CDA: 50%
[11]; 400 mg QD only, 12 weeks, n = 14 (FIG. 6)
  patients who achieved CDA: 50%
[11]; 400 mg QD only, 12 weeks, n = 14 (FIG. 8B, 80% CI)
  patients who achieved CDA: 50%
[11]; 400 mg QD only, 12 weeks, n = 14 (FIG. 9B)
  patients who achieved complete remission (CR): 7%
[11]; 400 mg QD only, 24 weeks, n = 14 (FIG. 9B)
  patients who achieved complete remission (CR): 7%
[11]; 400 mg QD only, 28 weeks (24 on, 4 off treatment), n = 14 (FIG. 9B)
  patients who achieved complete remission (CR): 7%
[11]; 400 mg QD with dose adjustment up to 600 mg BID, 2 weeks, n = 15 (FIG. 7)
  patients who achieved CDA: 27%
[11]; 400 mg QD with dose adjustment up to 600 mg BID, 4 weeks, n = 15 (FIG. 7)
  patients who achieved CDA: 53%
[11]; 400 mg QD with dose adjustment up to 600 mg BID, 12 weeks, n = 15 (FIG. 7)
  patients who achieved CDA: 80%
[11]; 24 weeks of PRN1008 treatment
  daily corticosteroid usage: decreased
[11]; at 12 weeks
  Median PDAI: 4
[11]; at 24 weeks, 10 out of 15
  patients having reached a PDAI of 1 or 0: 67%
[11]; at 24 weeks
  Median PDAI: 1
[11]; by 24 weeks
  reduction in mean PDAI activity score: 79%
  reduction in median PDAI activity score: 94%
[11]; dose adjustment up to 600 mg BID, 4 weeks, n = 15 (FIG. 8A, 80% CI)
  patients who achieved CDA: 60%
[11]; dose adjustment up to 600 mg BID, 12 weeks (FIG. 9A)
  patients who achieved complete remission (CR): 13%
[11]; dose adjustment up to 600 mg BID, 12 weeks, n = 15 (FIG. 8A, 80% CI)
  patients who achieved CDA: 87%
[11]; dose adjustment up to 600 mg BID, 24 weeks (FIG. 9A)
  patients who achieved complete remission (CR): 33%
[11]; dose adjustment up to 600 mg BID, 28 weeks (24 on, 4 off treatment) (FIG. 9A)
  patients who achieved complete remission (CR): 40%
